# Experimental data published in ChEMBL document CHEMBL1201862, “PubChem BioAssay data set” (2004).
#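 A five-concentration, 48-hour dose response in 96-well plates underlies each endpoint, interpolated linearly between surrounding concentrations. GI50 is the concentration that inhibits growth by half.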 Activity calls are given as the source filed them. No stated cut-off is given here; in the data, active = GI50 up to about 1.1 µM and inactive = higher.
# Experiments:
# Assay in all cases: NCI tumour cell line growth inhibition, 48 h
# 786-0 = test system: 786-0
# A498 = test system: A498
# A549 = test system: A549
# ACHN = test system: ACHN
# BT-549 = test system: BT-549
# CAKI-1 = test system: CAKI-1
# CCRF-CEM = test system: CCRF-CEM
# COLO 205 = test system: COLO 205
# DU-145 = test system: DU-145
# EKVX = test system: EKVX
# HCC 2998 = test system: HCC 2998
# HCT-116 = test system: HCT-116
# HCT-15 = test system: HCT-15
# HL-60 = test system: HL-60
# HOP-62 = test system: HOP-62
# HOP-92 = test system: HOP-92
# HT-29 = test system: HT-29
# Hs-578T = test system: Hs-578T
# IGROV-1 = test system: IGROV-1
# K562 = test system: K562
# KM12 = test system: KM12
# LOX IMVI = test system: LOX IMVI
# M14 = test system: M14
# MCF7 = test system: MCF7
# MDA-MB-231 = test system: MDA-MB-231
# MDA-MB-435 = test system: MDA-MB-435
# MDA-N = test system: MDA-N
# MOLT-4 = test system: MOLT-4
# Malme-3M = test system: Malme-3M
# NCI-H226 = test system: NCI-H226
# NCI-H23 = test system: NCI-H23
# NCI-H460 = test system: NCI-H460
# NCI-H522 = test system: NCI-H522
# NCI/ADR-RES = test system: NCI/ADR-RES
# OVCAR-3 = test system: OVCAR-3
# OVCAR-4 = test system: OVCAR-4
# OVCAR-5 = test system: OVCAR-5
# OVCAR-8 = test system: OVCAR-8
# PC-3 = test system: PC-3
# RPMI-8226 = test system: RPMI-8226
# SF-268 = test system: SF-268
# SF-295 = test system: SF-295
# SF-539 = test system: SF-539
# SK-MEL-28 = test system: SK-MEL-28
# SK-MEL-2 = test system: SK-MEL-2
# SK-MEL-5 = test system: SK-MEL-5
# SK-OV-3 = test system: SK-OV-3
# SN12C = test system: SN12C
# SNB-19 = test system: SNB-19
# SNB-75 = test system: SNB-75
# SR = test system: SR
# SW-620 = test system: SW-620
# T47D = test system: T47D
# TK-10 = test system: TK-10
# U-251 = test system: U-251
# UACC-257 = test system: UACC-257
# UACC-62 = test system: UACC-62
# UO-31 = test system: UO-31
# RXF 393 = test system: RXF 393
structure (smiles),measurement,setting,value
CC(=O)N(C(C)=O)n1c(Cc2ccc(C)cc2)nn(C(C)=O)c1=O,GI50,786-0,> 100 µM (inactive)
same,GI50,A498,> 100 µM (inactive)
same,GI50,A549,> 100 µM (inactive)
same,GI50,ACHN,> 100 µM (inactive)
same,GI50,BT-549,> 100 µM (inactive)
same,GI50,CAKI-1,> 100 µM (inactive)
same,GI50,CCRF-CEM,> 100 µM (inactive)
same,GI50,COLO 205,> 100 µM (inactive)
same,GI50,DU-145,> 100 µM (inactive)
same,GI50,EKVX,> 100 µM (inactive)
same,GI50,HCC 2998,> 100 µM (inactive)
same,GI50,HCT-116,> 100 µM (inactive)
same,GI50,HCT-15,> 100 µM
same,GI50,HL-60,> 100 µM (inactive)
same,GI50,HOP-62,> 100 µM (inactive)
same,GI50,HOP-92,> 100 µM (inactive)
same,GI50,HT-29,> 100 µM (inactive)
same,GI50,Hs-578T,> 100 µM (inactive)
same,GI50,IGROV-1,> 100 µM (inactive)
same,GI50,K562,> 100 µM (inactive)
same,GI50,KM12,> 100 µM (inactive)
same,GI50,LOX IMVI,> 100 µM (inactive)
same,GI50,M14,> 100 µM (inactive)
same,GI50,MCF7,> 100 µM (inactive)
same,GI50,MDA-MB-231,> 100 µM (inactive)
same,GI50,MDA-MB-435,> 100 µM (inactive)
same,GI50,MDA-N,> 100 µM (inactive)
same,GI50,MOLT-4,> 100 µM (inactive)
same,GI50,Malme-3M,> 100 µM (inactive)
same,GI50,NCI-H226,> 100 µM (inactive)
same,GI50,NCI-H23,> 100 µM (inactive)
same,GI50,NCI-H460,> 100 µM (inactive)
same,GI50,NCI-H522,> 100 µM (inactive)
same,GI50,NCI/ADR-RES,> 100 µM (inactive)
same,GI50,OVCAR-3,> 100 µM (inactive)
same,GI50,OVCAR-4,> 100 µM (inactive)
same,GI50,OVCAR-5,> 100 µM (inactive)
same,GI50,OVCAR-8,> 100 µM (inactive)
same,GI50,PC-3,> 100 µM (inactive)
same,GI50,RPMI-8226,> 100 µM (inactive)
same,GI50,SF-268,> 100 µM (inactive)
same,GI50,SF-295,> 100 µM (inactive)
same,GI50,SF-539,> 100 µM (inactive)
same,GI50,SK-MEL-28,> 100 µM (inactive)
same,GI50,SK-MEL-2,> 100 µM (inactive)
same,GI50,SK-MEL-5,> 100 µM (inactive)
same,GI50,SK-OV-3,> 100 µM (inactive)
same,GI50,SN12C,> 100 µM (inactive)
same,GI50,SNB-19,> 100 µM (inactive)
same,GI50,SNB-75,> 100 µM (inactive)
same,GI50,SR,> 100 µM (inactive)
same,GI50,SW-620,> 100 µM (inactive)
same,GI50,T47D,> 100 µM (inactive)
same,GI50,TK-10,> 100 µM (inactive)
same,GI50,U-251,> 100 µM (inactive)
same,GI50,UACC-257,> 100 µM (inactive)
same,GI50,UACC-62,> 100 µM (inactive)
same,GI50,UO-31,> 100 µM (inactive)
CC(=O)OC(OC(C)=O)c1c2ccccc2cc2ccccc12,GI50,786-0,20.3 µM (inactive)
same,GI50,A498,17.7 µM (inactive)
same,GI50,A549,19.1 µM (inactive)
same,GI50,ACHN,24.1 µM (inactive)
same,GI50,BT-549,14.9 µM (inactive)
same,GI50,CAKI-1,30.5 µM (inactive)
same,GI50,CCRF-CEM,2.39 µM (inactive)
same,GI50,COLO 205,17.8 µM (inactive)
same,GI50,DU-145,27.9 µM (inactive)
same,GI50,EKVX,20 µM (inactive)
same,GI50,HCC 2998,15.6 µM (inactive)
same,GI50,HCT-116,10.3 µM (inactive)
same,GI50,HCT-15,7.55 µM
same,GI50,HL-60,23.7 µM (inactive)
same,GI50,HOP-92,21.4 µM (inactive)
same,GI50,HT-29,13.4 µM (inactive)
same,GI50,Hs-578T,23.2 µM (inactive)
same,GI50,IGROV-1,21.2 µM (inactive)
same,GI50,K562,3.56 µM (inactive)
same,GI50,KM12,6.93 µM (inactive)
same,GI50,LOX IMVI,4.35 µM (inactive)
same,GI50,M14,20.5 µM (inactive)
same,GI50,MCF7,16.5 µM (inactive)
same,GI50,MDA-MB-231,18 µM (inactive)
same,GI50,MDA-MB-435,24.6 µM (inactive)
same,GI50,MDA-N,22 µM (inactive)
same,GI50,MOLT-4,2.78 µM (inactive)
same,GI50,NCI-H226,17.9 µM (inactive)
same,GI50,NCI-H23,25.1 µM (inactive)
same,GI50,NCI-H460,14.6 µM (inactive)
same,GI50,NCI/ADR-RES,8.34 µM (inactive)
same,GI50,OVCAR-3,21.4 µM (inactive)
same,GI50,OVCAR-5,30.5 µM (inactive)
same,GI50,OVCAR-8,15.5 µM (inactive)
same,GI50,PC-3,3.59 µM (inactive)
same,GI50,RPMI-8226,16.6 µM (inactive)
same,GI50,RXF 393,13.3 µM (inactive)
same,GI50,SF-268,18.4 µM (inactive)
same,GI50,SF-295,20.7 µM (inactive)
same,GI50,SF-539,14.8 µM (inactive)
same,GI50,SK-MEL-5,11.9 µM (inactive)
same,GI50,SK-OV-3,20.9 µM (inactive)
same,GI50,SN12C,12.9 µM (inactive)
same,GI50,SNB-19,14.8 µM (inactive)
same,GI50,SNB-75,17.3 µM (inactive)
same,GI50,SR,9.53 µM (inactive)
same,GI50,SW-620,3.18 µM (inactive)
same,GI50,T47D,17.2 µM (inactive)
same,GI50,TK-10,20.4 µM (inactive)
same,GI50,U-251,5.98 µM (inactive)
same,GI50,UACC-257,21 µM (inactive)
same,GI50,UACC-62,15.9 µM (inactive)
same,GI50,UO-31,19.3 µM (inactive)
